This is an account of results in patent US12227520B2 (priority 2019, dated 2025).

SMILES strings stand for the structures. Where two headings read alike, the source gives them in different places. Some results are limits rather than exact numbers.

In one data set the test system is HIV-1 (IIIB). Nature of the data set: Antiviral assay in MT-4 cells (HIV MT-4 antiviral assay). It counts as cell-based. The settings on record: Human immunodeficiency virus 1, IIIB, MT4, 120 h, HIV-1 (IIIB) in MT-4 cells, 5 days incubation; read-out: EC50. The procedure, abridged: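 Read-out is CellTiter-Glo chemiluminescence after 5-day culture at 37° C, giving protection of MT-4 cells from HIV-1 IIIB cytopathicity. Compounds tested in 1:3 dilution series in complete RPMI; controls were no drug, mock infection and 5 μM AZT.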

A short description of data set [1]: Cytotoxicity assay in MT-4 cells. Type of data set: cell-based, human. The settings on record: human, uninfected MT-4 cells, 5 days incubation; read-out: CC50. The procedure, abridged:
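For cytotoxicity, uninfected MT-4 cells were incubated with compounds 5 days at 37 °C, with 10 μM puromycin marking base cytotoxicity. Parallel plates used HIV-1 IIIB-infected (1:250 stock dilution) or mock cells with 5 μM AZT and no-drug controls. Read-out: CellTiter-Glo chemiluminescence.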

Another data set deals with pLai RLuc reporter virus. As to the kind of experiment: microbe, parasite or virus in culture. It counts as cell-based, HIV. Particulars: Human immunodeficiency virus 1, 72 h. The procedure, abridged:
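Read-out is Renilla luciferase after 72 h at 37 °C in MT-4 cells infected 2 h beforehand with pLai RLuc reporter virus; compounds diluted 1:3.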

The mark [2] stands for this setting: read-out: Antiviral Serum Shift RLuc 50% HS, HS/CCM (RPMI media, 10% FBS, 50% HS, 1% P/S), 72-h incubation.
The mark [3] stands for this setting: read-out: Antiviral Serum Shift RLuc CCM, CCM (RPMI media, 10% FBS, 1% P/S), 72-h incubation.

As for `O=C(NCc1ccc(F)cc1F)c1cn2c(c(O)c1=O)C(=O)N1Cc3ccccc3C[C@H]2C1` [Example 71, (6S)—N-(2,4-difluorobenzyl)-1-hydroxy-2,14-dioxo-2,7,12,14-tetrahydro-6H-6,13-methanobenzo[f]pyrido[1,2-a][1,4]diazonine-3-carboxamide], the EC50 in the data set on HIV-1 (IIIB) turned out to be 2.14 nM; in the data set on pLai RLuc reporter virus (setting [2]) it was 1.66 nM; with pLai RLuc reporter virus (setting [3]), 0.302 nM. Also, the CC50 at 5 days in data set [1] came to 15000 nM.
For `O=C(NCc1c(F)cc(F)cc1F)c1cn2c(c(O)c1=O)C(=O)N1CC[C@@H](F)C[C@H]2C1` [Example 73-1, (5R,7S)-5-fluoro-12-hydroxy-1,11-dioxo-N-(2,4,6-trifluorobenzyl)-1,4,5,6,7,11-hexahydro-3H-2,7-methanopyrido[1,2-a][1,4]diazonine-10-carboxamide] the same measures were 5.2 nM, 0.897 nM, 0.715 nM and more than 50000 nM.
For `O=C(NCc1c(F)cc(F)cc1F)c1cn2c(c(O)c1=O)C(=O)N1CC[C@@H](F)C[C@@H]2C1` [Example 73-2, (5R, 7R)-5-fluoro-12-hydroxy-1,11-dioxo-N-(2,4,6-trifluorobenzyl)-1,4,5,6,7,11-hexahydro-3H-2,7-methanopyrido[1,2-a][1,4]diazonine-10-carboxamide] the same measures were 1.82 nM, 0.919 nM, 0.283 nM and 23100 nM.
For `O=C(NCc1c(F)cc(F)c(Cl)c1F)c1cn2c(c(O)c1=O)C(=O)N1CCCC[C@H]2C1` [Example 74, (7S)—N-(3-chloro-2,4,6-trifluorobenzyl)-12-hydroxy-1,11-dioxo-1,4,5,6,7,11-hexahydro-3H-2,7-methanopyrido[1,2-a][1,4]diazonine-10-carboxamide] the same measures were 1.52 nM, 13.8 nM, 0.492 nM and 7280 nM.
For the compound `CC[C@]1(O)CCCN2C[C@H]1n1cc(C(=O)NCc3ccc(F)cc3F)c(=O)c(O)c1C2=O` [Example 77, (6S,7R)—N-(2,4-difluorobenzyl)-6-ethyl-6,12-dihydroxy-1,11-dioxo-1,4,5,6,7,11-hexahydro-3H-2,7-methanopyrido[1,2-a][1,4]diazonine-10-carboxamide], the EC50 amounted to 2.17 nM with HIV-1 (IIIB), 2.13 nM in the data set on pLai RLuc reporter virus (setting [2]) and 0.762 nM in the data set with pLai RLuc reporter virus (setting [3]). Further, the CC50 at 5 days in data set [1] amounted to 15100 nM.
On the same counts, the results for `O=C1CC[C@H]2CN(C1)C(=O)c1c(O)c(=O)c(C(=O)NCc3c(F)cc(F)cc3F)cn12` [Example 78, (7S)-12-hydroxy-1,4,11-trioxo-N-(2,4,6-trifluorobenzyl)-1,4,5,6,7,11-hexahydro-3H-2,7-methanopyrido[1,2-a][1,4]diazonine-10-carboxamide] are 9.56 nM, 3.76 nM, 1.93 nM and more than 50000 nM.
On the same counts, the results for `O=C(NCc1c(F)cc(F)cc1F)c1cn2c(c(O)c1=O)C(=O)N1C[C@@H]2CCCc2ccccc21` [Example 80-1, (6S)-1-hydroxy-2,15-dioxo-N-(2,4,6-trifluorobenzyl)-2,6,7,8,9,15-hexahydro-6,14-methanobenzo[e]pyrido[1,2-a][1,4]diazecine-3-carboxamide] are 2.24 nM, 0.651 nM, 0.348 nM and 10400 nM.
On the same counts, the results for `O=C(NCc1c(F)cc(F)cc1F)c1cn2c(c(O)c1=O)C(=O)N1C[C@H]2CCCc2ccccc21` [Example 80-2, (6R)-1-hydroxy-2,15-dioxo-N-(2,4,6-trifluorobenzyl)-2,6,7,8,9,15-hexahydro-6,14-methanobenzo[e]pyrido[1,2-a][1,4]diazecine-3-carboxamide] are 5.35 nM, 7.54 nM, 0.618 nM and 13400 nM.
